Bridge positions count the residues as written; N and C are the ends. Peptide text beside a SMILES is read from it.

This test concerns the target hSK2A^+ (Homo sapiens, UniProt Q9H2S1, DUP58-58). Description: Membrane potential sensitive dye fluorescence assay (FLIPR384) in tsA201 cells stably expressing SK2. In kind it is cell-based. To be noted: for effect on the fluorescence signals (responses to ATP/Tg and Cs+): 10 minutes incubation; for Hill coefficient (nH): inhibition of ATP/Tg induced decrease in fluorescence, FIG. 9. The protocol: These cells were plated in a black optical bottom 384 well assay plate at a density of 8×10^6 cells/plate. […] After a 30-minute incubation in the voltage sensitive dye, the cell plate was transferred to a fluorescence plate reader (FLIPR384™, Molecular Devices), and ten baseline fluorescence readings were obtained.
Intracellular Ca^2+ levels of the cells were raised by addition of ATP (200 μM final concentration) and thapsigargin (1 μM final concentration). […] In FIG. 8, time is represented in seconds on the X-axis, and fluorescence is represented in au on the Y-axis. ATP/Tg addition is indicated at time 1, and CsCl addition is indicated at time II.
The magnitude of the ATP/Tg induced decrease in fluorescence was measured in the presence of each of a panel of known SK2 inhibitors. […]

Chain of hSK2A^+ (Q9H2S1 with tags, fused parts or gaps DUP58-58): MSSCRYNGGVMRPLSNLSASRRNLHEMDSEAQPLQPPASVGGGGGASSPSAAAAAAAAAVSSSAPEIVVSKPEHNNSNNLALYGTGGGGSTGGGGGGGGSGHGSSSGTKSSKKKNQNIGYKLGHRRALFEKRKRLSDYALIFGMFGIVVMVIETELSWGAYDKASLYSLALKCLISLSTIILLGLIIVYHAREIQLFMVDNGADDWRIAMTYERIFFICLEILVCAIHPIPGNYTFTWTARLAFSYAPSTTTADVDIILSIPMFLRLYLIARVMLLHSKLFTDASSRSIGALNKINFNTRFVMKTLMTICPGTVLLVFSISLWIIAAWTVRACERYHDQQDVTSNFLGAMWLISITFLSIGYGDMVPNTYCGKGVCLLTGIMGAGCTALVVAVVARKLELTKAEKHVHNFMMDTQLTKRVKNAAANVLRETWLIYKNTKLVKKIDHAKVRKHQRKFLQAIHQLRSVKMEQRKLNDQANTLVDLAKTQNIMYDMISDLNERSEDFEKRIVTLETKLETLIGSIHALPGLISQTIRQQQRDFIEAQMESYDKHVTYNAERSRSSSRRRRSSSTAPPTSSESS

Consider `CC(N/C(=N\C#N)Nc1ccncc1)C(C)(C)C` (centres unmarked) [pinacidil], for which the “effect on the fluorescence signals (responses to ATP/Tg and Cs+)” value (“effect on the fluorescence signals” for short) (tested at 286 μM) is reported as “no effect”.

As for “α-dendrotoxin (QPRRKLCILHRNPGRCYDKIPAFYYNQKKKQCERFDWSGCGGNSNRFKTIEECRRTCIG)”, for the setting “tested at 833 nM”, the “effect on the fluorescence signals” value is “no effect”.

In turn, `CC[C@H](C)[C@@H]1NC(=O)[C@@H]2CSSC[C@H](NC(=O)[C@H](Cc3ccccc3)NC(=O)[C@H](C)N)C(=O)N[C@@H](CC(N)=O)C(=O)N[C@@H](CC(C)C)C(=O)N[C@@H](CCCNC(=N)N)C(=O)N[C@@H](CCSC)C(=O)N[C@H]3CSSC[C@H](NC(=O)[C@H](CCCCN)NC(=O)[C@H](CC(=O)O)NC(=O)CNC1=O)C(=O)N[C@@H](CCC(=O)O)C(=O)N[C@H](C(=O)N[C@H](C(=O)N[C@@H](CCCCN)C(=O)N[C@@H](Cc1c[nH]cn1)C(N)=O)C(C)C)CSSC[C@H](NC(=O)[C@H](CO)NC(=O)[C@H](CC(C)C)NC(=O)[C@H](CCC(N)=O)NC3=O)C(=O)N[C@@H](CCCNC(=N)N)C(=O)N[C@@H](CO)C(=O)N[C@@H](CC(C)C)C(=O)NCC(=O)N[C@@H](CC(C)C)C(=O)N[C@@H](CC(C)C)C(=O)NCC(=O)N[C@@H](CCCCN)C(=O)N2` [scyllatoxin] (H-AFCNLRMCQLSCRSLGLLGKCIGDKCECVKH-NH2; disulfide 3-21, 8-26, 12-28) had an IC50 of 1.1 nM.

As to `C=C[C@H]1C[N@@]2CC[C@H]1C[C@@H]2[C@@H](O)c1ccnc2ccc(OC)cc12` [quinidine], the “Hill coefficient (nH)” value is 0.6.

In the case of “noxiustoxin (TIINVKCTSPKQCSKPCKELYGSSAGAKCMNGKCKCYNN)”, under “tested at 833 nM”, the “effect on the fluorescence signals” value is listed as “no effect”.

Regarding “iberiotoxin (QFTDVDCSVSKECWSVCKDLFGVDRGKCMGKKCRCYQ) [toxin isolated from Mesobuthus tamulus]”, the “effect on the fluorescence signals” value (tested at 833 nM) is “no effect”.

Regarding `C[N+]1(C)CCc2cc3c(cc2[C@H]1[C@@H]1OC(=O)c2c1ccc1c2OCO1)OCO3.[Br-]` [bicuculline methobromide], the “Hill coefficient (nH)” value was found to be 1.

In the case of `O=c1[nH]c2cc(C(F)(F)F)ccc2n1-c1cc(C(F)(F)F)ccc1O` [NS1619], the “Hill coefficient (nH)” value stood at 2.

Broadly, the IC50 is the point on the concentration scale where inhibition reaches its midpoint. A higher IC50 goes with a need for much substance.

The values are drawn from US20050250090A1, “Assay systems and methods for detecting molecules that interact with SK2 channels” (priority 2003, published 2005).
